“And” between values parts separate entries of the source, which are not always exact repeats. Equal values may be shown once. Toxic doses and inconclusive results are not listed. No stated cut-off is given here; in the data, active means T/C of 150% or more; inactive means T/C below 125%.
System: L1210 leukemia ip in BDF1 mice, survival T/C
Assay: NCI In Vivo Anticancer Drug Screen. Data for tumor model L1210 Leukemia (intraperitoneal) in B6D2F1 (BDF1) mice
Settings: endpoint: mean survival time, higher = longer survival
How it was run: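 In this screen, tumor-bearing mice given compound are compared to those given vehicle, and their survival values are reported as a treated-to-control quotient.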

Measured: T/C

CCC1(O)CC(OC2CC(N(C)C)C(OC3CC4OC5CC(=O)C(C)OC5OC4C(C)O3)C(C)O2)c2c(cc3c(c2O)C(=O)c2c(O)ccc(O)c2C3=O)C1C(=O)OC (stereo not drawn)
inactive: dose: 0.01 mg/kg/injection, schedule: Q01DX Z (ip), vehicle: saline 108 % of control and 88 % of control | dose: 0.16 mg/kg/injection, schedule: Q01DX Z (ip), vehicle: saline 98 % of control and 88 % of control | dose: 0.18 mg/kg/injection, schedule: Q03HX008 (ip), vehicle: saline with Tween-80 94 % of control and 90 % of control | dose: 0.18 mg/kg/injection, schedule: Q03HX024 (ip), vehicle: saline with Tween-80 93 % of control and 102 % of control | dose: 0.25 mg/kg/injection, schedule: Q01DX Z (ip), vehicle: other 103 % of control | dose: 0.25 mg/kg/injection, schedule: Q01DX Z (ip), vehicle: saline 94 % of control and 105 % of control | dose: 0.37 mg/kg/injection, schedule: Q03HX008 (ip), vehicle: saline with Tween-80 94 % of control and 100 % of control | dose: 0.37 mg/kg/injection, schedule: Q03HX024 (ip), vehicle: saline with Tween-80 99 % of control and 102 % of control | dose: 0.5 mg/kg/injection, schedule: Q01DX Z (ip), vehicle: other 112 % of control | dose: 0.5 mg/kg/injection, schedule: Q01DX Z (ip), vehicle: saline 113 % of control and 120 % of control | dose: 0.75 mg/kg/injection, schedule: Q01DX009 (ip), vehicle: saline with Tween-80 98 % of control | dose: 0.75 mg/kg/injection, schedule: Q03HX008 (ip), vehicle: saline with Tween-80 105 % of control and 109 % of control | dose: 0.75 mg/kg/injection, schedule: Q03HX024 (ip), vehicle: saline with Tween-80 105 % of control and 107 % of control | dose: 1.0 mg/kg/injection, schedule: Q01DX015 (ip), vehicle: saline 123 % of control | dose: 1.0 mg/kg/injection, schedule: Q01DX Z (ip), vehicle: other 123 % of control | dose: 1.1 mg/kg/injection, schedule: Q04DX003 (ip), vehicle: saline 107 % of control | dose: 1.25 mg/kg/injection, schedule: Q04DX003 (ip), vehicle: saline 106 % of control | dose: 1.5 mg/kg/injection, schedule: Q01DX001 (ip), vehicle: saline with Tween-80 93 % of control and 95 % of control | dose: 1.5 mg/kg/injection, schedule: Q01DX009 (ip), vehicle: saline with Tween-80 111 % of control | dose: 1.5 mg/kg/injection, schedule: Q01DX Z (ip), vehicle: other 120 % of control | dose: 1.5 mg/kg/injection, schedule: Q03HX008 (ip), vehicle: saline with Tween-80 114 % of control | dose: 1.5 mg/kg/injection, schedule: Q03HX024 (ip), vehicle: saline with Tween-80 98 % of control and 106 % of control | dose: 1.5 mg/kg/injection, schedule: Q04DX003 (ip), vehicle: saline with Tween-80 102 % of control and 105 % of control | dose: 1.7 mg/kg/injection, schedule: Q04DX003 (ip), vehicle: saline 110 % of control | dose: 1.8 mg/kg/injection, schedule: Q01DX015 (ip), vehicle: saline 91 % of control | dose: 2.0 mg/kg/injection, schedule: Q01DX Z (ip), vehicle: other 116 % of control | dose: 2.5 mg/kg/injection, schedule: Q04DX003 (ip), vehicle: saline 111 % of control | dose: 2.6 mg/kg/injection, schedule: Q04DX003 (ip), vehicle: saline 110 % of control | dose: 2.7 mg/kg/injection, schedule: Q01DX001 (ip), vehicle: saline 104 % of control and 120 % of control | dose: 3.0 mg/kg/injection, schedule: Q01DX001 (ip), vehicle: saline with Tween-80 93 % of control and 99 % of control | dose: 3.0 mg/kg/injection, schedule: Q01DX009 (ip), vehicle: saline with Tween-80 100 % of control | dose: 3.0 mg/kg/injection, schedule: Q04DX003 (ip), vehicle: saline with Tween-80 107 % of control and 108 % of control | dose: 4.0 mg/kg/injection, schedule: Q01DX001 (ip), vehicle: saline 114 % of control | dose: 4.0 mg/kg/injection, schedule: Q04DX003 (ip), vehicle: saline 124 % of control | dose: 6.0 mg/kg/injection, schedule: Q01DX001 (ip), vehicle: saline with Tween-80 99 % of control and 106 % of control | dose: 6.0 mg/kg/injection, schedule: Q01DX001 (ip), vehicle: saline 119 % of control | dose: 6.0 mg/kg/injection, schedule: Q04DX003 (ip), vehicle: saline with Tween-80 113 % of control and 115 % of control and 117 % of control | dose: 9.0 mg/kg/injection, schedule: Q01DX001 (ip), vehicle: saline 110 % of control | dose: 9.0 mg/kg/injection, schedule: Q04DX003 (ip), vehicle: saline with Tween-80 97 % of control | dose: 10.0 mg/kg/injection, schedule: Q04DX003 (ip), vehicle: saline 87 % of control | dose: 12.0 mg/kg/injection, schedule: Q01DX001 (ip), vehicle: saline with Tween-80 110 % of control and 122 % of control | dose: 12.0 mg/kg/injection, schedule: Q04DX003 (ip), vehicle: saline with Tween-80 105 % of control

COC1OC2COC(c3ccccc3)OC2C(O)C1OS(=O)(=O)c1ccc(C)cc1 (stereo not drawn)
inactive: dose: 100.0 mg/kg/injection, schedule: Q04DX003 (ip), vehicle: saline with Tween-80 87 % of control | dose: 200.0 mg/kg/injection, schedule: Q04DX003 (ip), vehicle: saline with Tween-80 87 % of control

CCOc1cccc2c(=O)c(C(=O)O)cn(CC)c12
inactive: dose: 100.0 mg/kg/injection, schedule: Q04DX002 (ip), vehicle: Klucel (hydroxypropylcellulose) (HPC) 93 % of control | dose: 200.0 mg/kg/injection, schedule: Q04DX002 (ip), vehicle: Klucel (hydroxypropylcellulose) (HPC) 107 % of control | dose: 400.0 mg/kg/injection, schedule: Q04DX002 (ip), vehicle: Klucel (hydroxypropylcellulose) (HPC) 104 % of control

CCOC(=O)c1ccc(NC(C)=O)o1
inactive: dose: 10.0 mg/kg/injection, schedule: Q01DX001 (ip), vehicle: carboxymethylcellulose (CMC) 107 % of control | dose: 20.0 mg/kg/injection, schedule: Q01DX001 (ip), vehicle: carboxymethylcellulose (CMC) 95 % of control | dose: 40.0 mg/kg/injection, schedule: Q01DX001 (ip), vehicle: carboxymethylcellulose (CMC) 103 % of control | dose: 80.0 mg/kg/injection, schedule: Q01DX001 (ip), vehicle: carboxymethylcellulose (CMC) 92 % of control

c1ccc2c(c1)CCc1ccccc1CN(CCNC1=NCCN1)C2
inactive: dose: 6.25 mg/kg/injection, schedule: Q01DX009 (ip), vehicle: Klucel (hydroxypropylcellulose) (HPC) 96 % of control | dose: 12.5 mg/kg/injection, schedule: Q01DX009 (ip), vehicle: Klucel (hydroxypropylcellulose) (HPC) 91 % of control | dose: 25.0 mg/kg/injection, schedule: Q01DX009 (ip), vehicle: Klucel (hydroxypropylcellulose) (HPC) 91 % of control

CCCCCCC(=O)N(CCCCC)CCCCC
inactive: dose: 100.0 mg/kg/injection, schedule: Q01DX001 (ip), vehicle: carboxymethylcellulose (CMC) 98 % of control | dose: 100.0 mg/kg/injection, schedule: Q01DX009 (ip), vehicle: carboxymethylcellulose (CMC) 96 % of control and 97 % of control | dose: 100.0 mg/kg/injection, schedule: Q04DX002 (ip), vehicle: carboxymethylcellulose (CMC) 100 % of control and 102 % of control | dose: 100.0 mg/kg/injection, schedule: Q04DX003 (ip), vehicle: carboxymethylcellulose (CMC) 93 % of control | dose: 200.0 mg/kg/injection, schedule: Q01DX001 (ip), vehicle: carboxymethylcellulose (CMC) 94 % of control | dose: 200.0 mg/kg/injection, schedule: Q01DX009 (ip), vehicle: carboxymethylcellulose (CMC) 96 % of control and 105 % of control | dose: 200.0 mg/kg/injection, schedule: Q04DX002 (ip), vehicle: carboxymethylcellulose (CMC) 98 % of control and 100 % of control | dose: 200.0 mg/kg/injection, schedule: Q04DX003 (ip), vehicle: carboxymethylcellulose (CMC) 95 % of control | dose: 400.0 mg/kg/injection, schedule: Q01DX001 (ip), vehicle: carboxymethylcellulose (CMC) 104 % of control | dose: 400.0 mg/kg/injection, schedule: Q04DX002 (ip), vehicle: carboxymethylcellulose (CMC) 98 % of control and 103 % of control | dose: 400.0 mg/kg/injection, schedule: Q04DX003 (ip), vehicle: carboxymethylcellulose (CMC) 97 % of control

O=C1CC=C(Nc2ccc(Br)cc2)C(=O)O1
inactive: dose: 100.0 mg/kg/injection, schedule: Q04DX003 (ip), vehicle: saline 106 % of control | dose: 200.0 mg/kg/injection, schedule: Q04DX003 (ip), vehicle: saline 108 % of control | dose: 400.0 mg/kg/injection, schedule: Q04DX003 (ip), vehicle: saline 108 % of control

From PubChem BioAssay AID248 (DTP/NCI, 2004)
